Usually inhibition stands for the share of the control response that was lost under treatment.

Active and inactive are the calls of the source. No cut-off for these calls is given here.

The subject of one series is J774.A1. The experiment in a line: Cytotoxicity against mouse J774.A1 cells assessed as reduction in cell viability at 10 uM incubated for 24 hrs by MTT assay. In kind it is toxicity, cell-based. Particulars: j774.a1, 24 h. Background: Formazan colour is commonly taken as a measure of viable cells.
The target of series [1] is NACHT, LRR and PYD domains-containing protein 3 (Homo sapiens) (UniProt Q96P20). Description: Inhibition of NLRP3 mediated in HEME-induced inflammasome in human PMA differentiated THP-1 cells assessed as reduction in IL-1beta level in presence of LPS at 0.1 to 10 uM pretreated for 1 hr followed by hemin addition measured after 1 hrs by ELISA method. In kind it is cell-based. As to conditions: dose 0.1-10 µM, time 2.0 hrs. (In general: ELISA stands for enzyme-linked immunosorbent assay.)
Sequence of NACHT, LRR and PYD domains-containing protein 3 (Homo sapiens) (Q96P20 whole entry, the tested form may be a part): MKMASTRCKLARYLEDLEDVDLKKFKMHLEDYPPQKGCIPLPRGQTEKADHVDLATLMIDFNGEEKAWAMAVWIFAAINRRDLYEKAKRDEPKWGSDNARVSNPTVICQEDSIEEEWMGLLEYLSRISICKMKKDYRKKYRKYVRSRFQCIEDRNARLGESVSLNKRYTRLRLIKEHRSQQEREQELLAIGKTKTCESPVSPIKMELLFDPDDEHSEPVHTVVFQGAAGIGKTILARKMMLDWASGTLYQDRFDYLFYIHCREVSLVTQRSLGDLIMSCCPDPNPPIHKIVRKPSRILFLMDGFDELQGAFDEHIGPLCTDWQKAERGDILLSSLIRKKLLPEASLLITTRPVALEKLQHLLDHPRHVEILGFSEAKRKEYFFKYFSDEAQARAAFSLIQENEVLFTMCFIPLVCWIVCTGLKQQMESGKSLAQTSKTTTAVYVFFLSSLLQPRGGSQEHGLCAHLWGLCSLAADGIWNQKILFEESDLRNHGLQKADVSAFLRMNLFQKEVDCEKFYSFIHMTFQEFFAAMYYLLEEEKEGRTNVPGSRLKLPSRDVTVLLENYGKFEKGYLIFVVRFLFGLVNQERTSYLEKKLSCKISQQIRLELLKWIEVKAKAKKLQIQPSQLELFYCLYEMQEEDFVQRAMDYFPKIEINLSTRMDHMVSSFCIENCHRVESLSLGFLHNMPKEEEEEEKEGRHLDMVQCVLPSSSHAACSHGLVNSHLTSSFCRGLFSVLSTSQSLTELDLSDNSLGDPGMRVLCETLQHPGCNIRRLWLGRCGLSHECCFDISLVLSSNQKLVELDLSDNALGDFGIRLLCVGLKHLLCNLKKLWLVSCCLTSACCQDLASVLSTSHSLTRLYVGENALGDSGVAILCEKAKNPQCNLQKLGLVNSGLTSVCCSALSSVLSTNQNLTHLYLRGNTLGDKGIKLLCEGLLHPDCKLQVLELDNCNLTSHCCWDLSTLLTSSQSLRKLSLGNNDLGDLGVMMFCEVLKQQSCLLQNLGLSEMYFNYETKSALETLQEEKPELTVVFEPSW

The nature of series [2]: Metabolic stability in mouse liver microsomes assessed as drug degradation measured after 5 mins in absence of NADPH by single ion monitoring mode based LC-MS method relative to control. The class given is ADME, Microsome. Particulars: read-out: Drug degradation. For orientation: Liver microsomes are a subcellular fraction often used to study metabolism.
Series [3] is described as follows: Metabolic stability in mouse liver microsomes in presence of NADPH measured after 5 mins by single ion monitoring mode based LC-MS method. The class given is ADME, Microsome.
Series [4] addresses NACHT, LRR and PYD domains-containing protein 3 (Homo sapiens) (UniProt Q96P20). The experiment in a line: Inhibition of NLRP3 mediated in HEME-induced inflammasome in human PMA differentiated THP-1 cells assessed as reduction in IL-1beta level in presence of LPS at 10 uM pretreated for 1 hr followed by hemin addition measured after 1 hrs by ELISA method relative to control. In kind it is cell-based. As to conditions: time 2.0 hrs.

Series [5] has the same target. The experiment in a line: Inhibition of NLRP3 mediated in HEME-induced inflammasome in human PMA differentiated THP-1 cells assessed as reduction in IL-1beta level in presence of LPS at 1 uM pretreated for 1 hr followed by hemin addition measured after 1 hrs by ELISA method relative to control. The class given is cell-based. As to conditions: time 2.0 hrs.
Series [6] has the same target. The experiment in a line: Inhibition of NLRP3 mediated in HEME-induced inflammasome in human PMA differentiated THP-1 cells assessed as reduction in IL-1beta level in presence of LPS at 0.1 uM pretreated for 1 hr followed by hemin addition measured after 1 hrs by ELISA method relative to control. In kind it is cell-based. Particulars: time 2.0 hrs.
Series [7] deals with NACHT, LRR and PYD domains-containing protein 3 (Mus musculus) (UniProt Q8R4B8). Description: Inhibition of NLRP3 inflammasome in mouse J774.A1 cells assessed as reduction in TNF-alpha in presence of LPS at 10 uM pretreated for 1 hr followed by LPS stimulation measured after 24 hrs by ELISA method. The class given is cell-based. As to conditions: time 25.0 hrs.
Sequence of NACHT, LRR and PYD domains-containing protein 3 (Mus musculus) (Q8R4B8 whole entry, the tested form may be a part): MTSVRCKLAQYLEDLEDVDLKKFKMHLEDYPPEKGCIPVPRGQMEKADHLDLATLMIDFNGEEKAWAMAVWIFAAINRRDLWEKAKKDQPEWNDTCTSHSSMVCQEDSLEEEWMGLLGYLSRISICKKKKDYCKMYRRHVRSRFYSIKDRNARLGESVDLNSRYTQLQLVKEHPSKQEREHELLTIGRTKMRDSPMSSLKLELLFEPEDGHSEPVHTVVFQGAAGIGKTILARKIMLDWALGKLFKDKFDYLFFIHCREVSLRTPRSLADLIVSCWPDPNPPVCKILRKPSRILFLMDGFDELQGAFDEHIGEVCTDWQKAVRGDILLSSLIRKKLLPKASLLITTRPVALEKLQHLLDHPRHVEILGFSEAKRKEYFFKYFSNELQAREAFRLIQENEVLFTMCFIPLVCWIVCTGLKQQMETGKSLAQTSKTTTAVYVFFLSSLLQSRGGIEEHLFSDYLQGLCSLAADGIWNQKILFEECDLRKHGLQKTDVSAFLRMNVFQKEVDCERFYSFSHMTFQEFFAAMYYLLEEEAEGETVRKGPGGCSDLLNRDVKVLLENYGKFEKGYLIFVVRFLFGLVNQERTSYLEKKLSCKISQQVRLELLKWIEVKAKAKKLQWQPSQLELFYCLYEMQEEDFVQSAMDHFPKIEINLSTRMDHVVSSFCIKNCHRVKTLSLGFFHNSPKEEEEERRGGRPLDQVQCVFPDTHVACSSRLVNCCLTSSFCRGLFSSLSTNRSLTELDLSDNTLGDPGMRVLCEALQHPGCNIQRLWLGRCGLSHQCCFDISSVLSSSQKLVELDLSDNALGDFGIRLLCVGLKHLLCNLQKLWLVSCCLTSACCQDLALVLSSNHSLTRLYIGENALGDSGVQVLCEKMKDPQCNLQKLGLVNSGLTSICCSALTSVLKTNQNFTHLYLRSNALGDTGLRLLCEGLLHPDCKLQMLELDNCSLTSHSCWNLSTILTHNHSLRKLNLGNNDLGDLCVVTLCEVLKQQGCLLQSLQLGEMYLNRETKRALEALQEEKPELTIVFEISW
For series [8] the target is unchanged. Description: Inhibition of NLRP3 inflammasome in mouse J774.A1 cells assessed as reduction in TNF-alpha in presence of LPS at 0.1 to 1 uM pretreated for 1 hr followed by LPS stimulation measured after 24 hrs by ELISA method. The class given is cell-based. As to conditions: dose 0.1-1 µM, time 25.0 hrs.
Series [9] shares this target. The experiment in a line: Inhibition of NLRP3 inflammasome in mouse J774.A1 cells assessed as reduction in IL-6 in presence of LPS at 0.1 to 1 uM pretreated for 1 hr followed by LPS stimulation measured after 24 hrs by ELISA method. The class given is cell-based. As to conditions: dose 0.1-1 µM, time 25.0 hrs.
Series [10] is described as follows: Metabolic stability in mouse liver microsomes assessed as drug degradation in the presence of NADPH measured after 5 mins by LC-MS method. The class given is ADME, Microsome.
The nature of series [11]: Metabolic stability in human liver microsomes assessed as drug degradation measured after 5 mins by LC-MS method relative to control. In kind it is ADME, Microsome. As to conditions: read-out: Drug degradation.
The test system of series [12] is Mus musculus. The experiment in a line: Antiinflammatory activity against LPS/HEME-induced Balb/C mouse model assessed as reduction of IL-1 beta secretion at 10 mg/kg, ip administered for 30 mins followed by LPS for 4 hrs incubation and later stimulated with HEME for 1 hrs by ELISA. As to conditions: time 330.0 min. In kind it is functional, organism-based.
Series [13] has as its system Mus musculus. The experiment in a line: Antiinflammatory activity against LPS/HEME-induced Balb/C mouse model assessed as reduction of IL-1 beta secretion at 30 mg/kg, ip administered for 30 mins followed by LPS for 4 hrs incubation and later stimulated with HEME for 1 hrs by ELISA. In kind it is functional, organism-based. Particulars: time 330.0 min.
Series [14] has as its system Mus musculus. The experiment in a line: Antiinflammatory activity against LPS/HEME-induced Balb/C mouse model assessed as reduction of IL-1 beta secretion at 1 mg/kg, ip administered for 30 mins followed by LPS for 4 hrs incubation and later stimulated with HEME for 1 hrs by ELISA. The class given is functional, organism-based. Particulars: time 330.0 min.
In series [15] the target is NACHT, LRR and PYD domains-containing protein 3 (Homo sapiens) (UniProt Q96P20). Description: Inhibition of NLRP3 mediated in HEME-induced inflammasome in human PMA differentiated THP-1 cells assessed as reduction in IL-1beta level in presence of LPS at 1 uM pretreated for 1 hr followed by hemin addition measured after 1 hrs by ELISA method. The class given is cell-based. Particulars: time 2.0 hrs.

For series [16] the target is unchanged. The experiment in a line: Inhibition of NLRP3 mediated in HEME-induced inflammasome in human PMA differentiated THP-1 cells assessed as reduction in IL-1beta level in presence of LPS at 10 uM pretreated for 1 hr followed by hemin addition measured after 1 hrs by ELISA method. The class given is cell-based. As to conditions: time 2.0 hrs.
The target of series [17] is NACHT, LRR and PYD domains-containing protein 3 (Mus musculus) (UniProt Q8R4B8). Description: Inhibition of NLRP3 inflammasome in mouse J774.A1 cells assessed as reduction in IL-6 in presence of LPS at 10 uM pretreated for 1 hr followed by LPS stimulation measured after 24 hrs by ELISA method. Particulars: time 25.0 hrs. The class given is cell-based.

For `C=C(C)[C@@H]1CCC(C)=C[C@H]1c1c(O)cc([Si](C)(C)CCCC)cc1O`, the Activity entry in the series on J774.A1 is recorded as “Non-Toxic”.

Take `C=C(C)[C@@H]1CCC(C)=C[C@H]1C1=C(O)C(=O)C(CCCCC)=CC1=O`: the inhibition result in [1] is “inactive”. In series [2], the metabolised at 5 min was less than 20%. Also, the Stability entry in [3] is listed as “Stable”.

As to `C=C(C)[C@@H]1CCC(C)=C[C@H]1C1=C(O)C(=O)C([Si](C)(C)C)=CC1=O`, the inhibition was greater than 80% in [4], greater than 50% in series [5] and greater than 20% in series [6]. Also, the inhibition entry in series [7], in series [8] and in series [9] was “Active” throughout. In addition, the Activity result in the series with J774.A1 is recorded as “Non-Toxic”. Further, the Drug degradation entry in series [10] was “Stable”. The metabolised at 5 min in series [11] was found to be 10%. Besides, the result in the series with Mus musculus [12] and in the series on Mus musculus [13] was Active.

As for `COc1cc2c(c(OC)c1OC)-c1ccc(OC)c(=O)cc1[C@@H](NC(C)=O)CC2`, the result with Mus musculus [14] was Active.

On to `CC(C)=CCC/C(C)=C/Cc1c(O)cc([Si](C)(C)C)cc1O`, for which, in the series with J774.A1, the Activity entry is “Non-Toxic”.

With `CCCCCC[Si](C)(C)c1cc(O)c(C/C=C(\C)CCC=C(C)C)c(O)c1`, the inhibition in series [4] was determined as 60%. Also, the inhibition result in series [15] is “Active”. The Activity result in the series with J774.A1 is reported as “Non-Toxic”.

Regarding `CCCC[Si](C)(C)C1=CC(=O)C(C/C=C(\C)CCC=C(C)C)=C(O)C1=O`, the inhibition entry in series [16], in series [15] and in series [17] was “Active” throughout. The inhibition entry in [8] and in series [9] was “inactive” throughout. Moreover, the Activity entry with J774.A1 was “Non-Toxic”.

Take `CC(C)=CCC/C(C)=C/CC1=C(O)C(=O)C([Si](C)(C)C)=CC1=O`: the inhibition entry in series [16], in [15] and in [7] was “Active” throughout. Further, the inhibition entry in [8] and in series [9] was “inactive” in each case. Besides, the Activity entry in the series on J774.A1 is on record as “Non-Toxic”.

Consider `CCCC[Si](C)(C)c1cc(O)c(C/C=C(\C)CCC=C(C)C)c(O)c1`, for which the Activity entry with J774.A1 is recorded as “Non-Toxic”.

Consider `C=C(C)[C@@H]1CCC(C)=C[C@H]1c1c(O)cc([Si](C)(C)CCCCCC)cc1O`, for which the Activity result in the series on J774.A1 is listed as “Non-Toxic”.

Turning to `CCCCCc1cc(O)c(C/C=C(\C)CCC=C(C)C)c(O)c1`, the inhibition result in series [15] is “Active”.

As to `CCCCCC[Si](C)(C)C1=CC(=O)C(C/C=C(\C)CCC=C(C)C)=C(O)C1=O`, the inhibition result in series [16], in series [15] and in series [17] was “Active” throughout. Further, the inhibition result in series [8] and in [9] was “inactive” in each case. The Activity result with J774.A1 is reported as “Non-Toxic”.

Regarding `CCCCCC1=CC(=O)C(C/C=C(\C)CCC=C(C)C)=C(O)C1=O`, in [1], the inhibition entry was “inactive”.
